Laboratory results: patent publication US20020107269A1, “Benzoxazole LPAAT-B inhibitors and uses thereof” (CELL THERAPEUTICS, INC., priority 2000, published 2002)
pIC50: −log10 of the molar value.

What was measured:
LPAAT-β = target: T1, LPAAT-β (Homo sapiens, UniProt O15120); assay: LPAAT-β colorimetric assay (DTNB detection of released CoA); type: biochemical; details: Sf9 cell membrane overexpressing LPAAT-β; 18:1-CoA and sn-1-18:1 lysoPA; absorbance at 405 nm; read-out: LPAATβ Colorimetric Assay IC50
T1 construct: the full-length human LPAAT-β cDNA was amplified by PCR; poly-histidine tag (N); made in house; host or cells: Sf9 insect cells (baculovirus, pFastBac HTc); membrane fraction used
T1 sequence (O15120 24-278): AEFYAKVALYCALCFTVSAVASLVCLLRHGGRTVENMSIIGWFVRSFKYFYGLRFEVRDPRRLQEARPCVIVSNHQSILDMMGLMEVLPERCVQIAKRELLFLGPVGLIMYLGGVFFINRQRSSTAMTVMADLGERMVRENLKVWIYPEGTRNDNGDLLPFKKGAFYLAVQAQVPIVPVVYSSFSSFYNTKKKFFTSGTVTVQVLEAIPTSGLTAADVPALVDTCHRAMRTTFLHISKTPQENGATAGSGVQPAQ
Source text: For the construction of Baculovirus expression vectors, the full-length human LPAAT-β cDNA was amplified by PCR from the DNA template pCE9.LPAAT-β (West et al., DNA Cell Biol. 16:691-701 (1997)) using the primers 5′-TGATATCCGAAGAAGATCTTATGGAGCTGTGGCCGTGTC-3′ (olpb1F) and 5′-CAGGCTCTAG ACTACTGGGC CGGCTGCAC-3′ (olpb1R). The ˜870 bp fragment generated was reamplified by PCR using the primers 5′ CCTACGTCG ACATGGAACAAAAATTGATATCCGAAGAAGATC-3′ (olpb2F) and 5′-CAGGCTCTAG ACTACTGGGC CGGCTGCAC-3′ (olpb1R). The ˜890 bp fragment generated was then cleaved with Sal I and Xba I for insertion into pFastBac™ HTc vector (Life Technologies, Gaithersberg, Md.) between the Sal I and Xba I sites for the generation of the plasmid pFB.LPAAT-β. This plasmid was then transformed into E. coli DH10Bac™ (Life Technologies, Gaithersberg, Md.) for the generation of recombinant Bacmid DNA for transfection into HighFive (Invitrogen, San Diego, Calif.) or SF9 insect cells for the production of recombinant Baculovirus stocks using the protocol described in the Bac-to-Bac® Baculovirus Expression System (Life Technologies, Gaithersberg, Md.), a eukaryotic expression system for generating recombinant baculovirus through site-specific transposition in E. coli. Viral stocks harvested from the transfected cells can then be used to infect fresh insect cells for the subsequent expression of LPAAT-β fusion protein with a poly-histidine tag and a myc-epitope near its N-terminus. The membrane fraction from these Sf9 cells would be the source of LPAAT enzyme.
For the preparation of membranes From Sf9 Cells, all steps are performed on ice or at 4° C. Sf9 cell pellets ([…]) were thawed and resuspended in 1-2 ml of buffer A (20 mM Hepes, pH 7.5, 1 mM DTT, 1 mM EDTA, 20% w/v glycerol, 1 mM Benzamidine, 1 μg/ml soybean trypsin inhibitor (SBTI), 1 μg/ml pepstatin A) w/o DTT but with 1 mM Pefabloc. The cells were lysed by sonication using a Branson Sonifier at output=2, duty cycle=2, 10 pulses each at 10 s. with the tip of small sonicator probe submerged but not touching the walls. DTT was then added to 1 mM from a 1M stock. The samples were centrifuged at 1500 rpm for 5 min. The low speed supernatant was saved and centrifuged (TLA 100.3 rotor, polycarbonate tubes, 2 ml/tube or 1.5 ml/tube minimum) at 100000×g for 1 hr. The high speed pellet was resuspend in Buffer A with a probe sonicator (10 pulses @ output #2 and duty cycle 20%) as a source of LPAAT enzyme.
LPAAT-β catalyzes the transfer of an acyl group from a donor such as acyl-CoA to LPA. The transfer of the acyl group from acyl-CoA to LPA leads to the release of free CoA, which can be reacted with the thiol reagent, 5,5′-dithiobis(2-nitrobenzoic acid) (DTNB). The reaction between DTNB and the free sulfhydryl group from CoA generates a yellow-colored product, 3-carboxylato-4-nitrothiophenolate (CNP), that absorbs at 413 nm. LPAAT-β derived from Sf9 cell membrane overexpressing LPAAT-β were resuspended in HEPES saline buffer (20 mM HEPES pH 7.5, 150 mM NaCl), 1 mg/ml BSA and 72 μl aliquots were distributed into 96-well microtiter plates. 8 μl of compound of interest at 200 μM dissolved in 100% DMSO was added into each well. 20 μl of 1 mM 18:1-CoA and 1 mM sn-1-18:1 lysoPA was then added to each well to initiate the reaction and allowed to run at room temperature for 25 min. 100 μl of 1 mM DTNB in 100% ethanol was then added to each well to quench the reaction and for color development. The absorbance at 405 nm, measured using a spectrophotometer plate reader, is proportional to the activity of LPAAT-β in the sample. This calorimetric assay was used for the high throughput screening of LPAAT inhibitors. […] Compounds that gave a reading of less than 0.06 arbitrary units (indicated by arrow on right margin) were selected for further study.

[1] = test system: human breast tumor MCF-7 cells; assay: Proliferation of MCF-7 cells by CyQUANT analysis; type: cell-based; details: MCF-7 cells in microplates, FIG. 5E
Protocol: To determine whether administration of LPAAT-β inhibitor would have any effect on cell proliferation in tissue culture, proliferation of human breast tumor MCF-7 cells in microplates were measured by CyQUANT analysis using a green-fluorescent nucleic acid stain optimized to produce a linear detection range from 50 to 50,000 cells in 200 μl volume (Molecular Probes, Eugene, Oreg.) in the presence of various concentrations of a LPAAT-β inhibitor.

| pIC50 (LPAAT-β) | Compound | concentration effective in blocking the proliferation of MCF-7 cells [1] [µM] |
| --- | --- | --- |
| 6.96 | N#CCC(=O)Nc1ccc(Cl)c(-c2nc3cccnc3s2)c1 [CT-32315, N-(4Chloro-3-thiazolo[5,4,b]pyridin-2-yl-phenyl)-2-cyano-acetamide] | – |
| – | CCC(=O)Nc1ccc(Cl)c(-c2nc3ccc(C)cc3o2)c1 [N-[4-Chloro-3-(6-methyl-benzooxazol-2-yl)-phenyl]-propionamide] | ≥ 20 |
